# Data: PubChem BioAssay (NCI)
#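 Grown in 96-well plates, cells were treated for 48 hours with each compound at five concentrations. Insufficient inhibition: endpoint recorded as highest concentration tested. GI50: concentration for 50% inhibition of growth. The concentration for full growth arrest is given as TGI.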
# Tests used:
# Assay in all cases: NCI-60 cell line screen, 48 h
# [1] = system: UACC-62 melanoma
# [2] = system: NCI-H522 lung
# [3] = system: UACC-257 melanoma
# [4] = system: HCC-2998 colon
# [5] = system: BT-549 breast
# [6] = system: HT29 colon
# [7] = system: OVCAR-5 ovarian
# [8] = system: ACHN renal
# [9] = system: NCI-H226 lung
# [10] = system: MALME-3M melanoma
# [11] = system: SK-MEL-2 melanoma
# [12] = system: IGROV1 ovarian
# [13] = system: SN12C renal
# [14] = system: U251 CNS
# [15] = system: MDA-MB-435
# [16] = system: KM12 colon
# [17] = system: NCI-H23 lung
# [18] = system: DU-145 prostate
# [19] = system: T-47D breast
# [20] = system: UO-31 renal
# [21] = system: RPMI-8226 leukemia
# [22] = system: HOP-62 NSCLC
# [23] = system: HL-60(TB) leukemia
# [24] = system: MDA-MB-231 breast
# [25] = system: NCI/ADR-RES ovarian
# [26] = system: MCF7 breast
# [27] = system: SK-MEL-5 melanoma
# [28] = system: OVCAR-4 ovarian
# [29] = system: MDA-MB-468 breast
# [30] = system: SK-MEL-28 melanoma
# [31] = system: HOP-92 NSCLC
# [32] = system: LOX IMVI melanoma
# [33] = system: SK-OV-3 ovarian
# [34] = system: OVCAR-3 ovarian
# [35] = system: COLO 205 colon
# [36] = system: HS 578T breast
# [37] = system: SNB-75 CNS
# [38] = system: CAKI-1 renal
# [39] = system: SF-539 CNS
# [40] = system: 786-0 renal
# [41] = system: EKVX NSCLC
# [42] = system: RXF 393 renal
# [43] = system: HCT-116 colon
# [44] = system: HCT-15 colon
# [45] = system: CCRF-CEM leukemia
# [46] = system: NCI-H460 lung
# [47] = system: TK-10 renal
# [48] = system: SF-268 CNS
# [49] = system: MOLT-4 leukemia
# [50] = system: OVCAR-8 ovarian
# [51] = system: SW-620 colon
# [52] = system: SNB-19 CNS
# [53] = system: K-562 leukemia
# [54] = system: A498 renal
# [55] = system: SR leukemia
# [56] = system: PC-3 prostate
# [57] = system: A549 NSCLC
# [58] = system: SF-295 CNS
# [59] = system: M14 melanoma
structure (smiles),measurement,setting,value
C=C1CCC2C3(C)COC(c4cccc(F)c4)OC3CCC2(C)C1C/C=C1/C(=O)OCC1O (stereo not drawn),GI50,[1],4.68 µM
same,TGI,[1],16.9 µM
same,GI50,[2],1.71 µM
same,TGI,[2],4 µM
same,GI50,[3],5.51 µM
same,TGI,[3],19.7 µM
same,GI50,[4],8.09 µM
same,TGI,[4],20.9 µM
same,GI50,[5],2.7 µM
same,TGI,[5],7.09 µM
same,GI50,[6],2.19 µM
same,TGI,[6],4.75 µM
same,GI50,[7],4.04 µM
same,TGI,[7],15.9 µM
same,GI50,[8],4.48 µM
same,TGI,[8],15.8 µM
same,GI50,[9],1.85 µM
same,TGI,[9],3.87 µM
same,GI50,[10],13.2 µM
same,TGI,[10],26.2 µM
same,GI50,[11],5.95 µM
same,TGI,[11],19.1 µM
same,GI50,[12],10.3 µM
same,TGI,[12],23.2 µM
same,GI50,[13],2.95 µM
same,TGI,[13],9.4 µM
same,GI50,[14],2.25 µM
same,TGI,[14],6.24 µM
same,GI50,[15],2.61 µM
same,TGI,[15],9.71 µM
same,GI50,[16],3.92 µM
same,TGI,[16],14.8 µM
same,GI50,[17],11 µM
same,TGI,[17],24.2 µM
same,GI50,[18],6.21 µM
same,TGI,[18],18.5 µM
same,GI50,[19],3.61 µM
same,TGI,[19],16 µM
same,GI50,[20],5.14 µM
same,TGI,[20],18.2 µM
same,GI50,[21],2.58 µM
same,TGI,[21],6.78 µM
same,GI50,[22],17.3 µM
same,TGI,[22],31.6 µM
same,GI50,[23],1.98 µM
same,TGI,[23],6.83 µM
same,GI50,[24],2.61 µM
same,TGI,[24],7.25 µM
same,GI50,[25],1.98 µM
same,TGI,[25],4.08 µM
same,GI50,[26],2.25 µM
same,TGI,[26],7.71 µM
same,GI50,[27],11 µM
same,TGI,[27],23 µM
same,GI50,[28],4.32 µM
same,TGI,[28],18.3 µM
same,GI50,[29],2.11 µM
same,TGI,[29],6.28 µM
same,GI50,[30],5.58 µM
same,TGI,[30],18 µM
same,GI50,[31],6.48 µM
same,TGI,[31],21.2 µM
same,GI50,[32],1.67 µM
same,TGI,[32],3.08 µM
same,GI50,[33],16.1 µM
same,TGI,[33],29.9 µM
same,GI50,[34],1.87 µM
same,TGI,[34],4.08 µM
same,GI50,[35],4.09 µM
same,TGI,[35],15.6 µM
same,GI50,[36],4.62 µM
same,TGI,[36],39.7 µM
same,GI50,[37],2.13 µM
same,TGI,[37],10.8 µM
same,GI50,[38],7.43 µM
same,TGI,[38],20.2 µM
same,GI50,[39],1.96 µM
same,TGI,[39],3.81 µM
same,GI50,[40],2.69 µM
same,TGI,[40],7.51 µM
same,GI50,[41],16.5 µM
same,TGI,[41],30.8 µM
same,GI50,[42],5.88 µM
same,TGI,[42],19.6 µM
same,GI50,[43],1.85 µM
same,TGI,[43],3.62 µM
same,GI50,[44],2.61 µM
same,TGI,[44],8.15 µM
same,GI50,[45],2.35 µM
same,TGI,[45],7.34 µM
same,GI50,[46],4.03 µM
same,TGI,[46],18.6 µM
same,GI50,[47],14.8 µM
same,TGI,[47],28.2 µM
same,GI50,[48],6 µM
same,TGI,[48],19.8 µM
same,GI50,[49],3.24 µM
same,TGI,[49],12 µM
same,GI50,[50],1.86 µM
same,TGI,[50],4.27 µM
same,GI50,[51],1.48 µM
same,TGI,[51],3.26 µM
same,GI50,[52],13.1 µM
same,TGI,[52],25.9 µM
same,GI50,[53],3.39 µM
same,TGI,[53],16.1 µM
same,GI50,[54],14.1 µM
same,TGI,[54],27.7 µM
same,GI50,[55],3.52 µM
same,TGI,[55],17.7 µM
same,GI50,[56],3.3 µM
same,TGI,[56],15.3 µM
same,GI50,[57],7.04 µM
same,TGI,[57],22.7 µM
same,GI50,[58],3.87 µM
same,TGI,[58],15.1 µM
same,GI50,[59],6.93 µM
same,TGI,[59],21.3 µM
